Results on 28 compounds are retold here after US10011597B2 (APOGLYX AB, priority 2014, dated 2018).

The target in the assay is T1, human aquaporin 9 (Homo sapiens, UniProt O43315).
T1 construct: expressed in transfected cells; host or cells: Human AQP9 cell line with tetracycline added to the medium
T1 sequence (O43315 1-295): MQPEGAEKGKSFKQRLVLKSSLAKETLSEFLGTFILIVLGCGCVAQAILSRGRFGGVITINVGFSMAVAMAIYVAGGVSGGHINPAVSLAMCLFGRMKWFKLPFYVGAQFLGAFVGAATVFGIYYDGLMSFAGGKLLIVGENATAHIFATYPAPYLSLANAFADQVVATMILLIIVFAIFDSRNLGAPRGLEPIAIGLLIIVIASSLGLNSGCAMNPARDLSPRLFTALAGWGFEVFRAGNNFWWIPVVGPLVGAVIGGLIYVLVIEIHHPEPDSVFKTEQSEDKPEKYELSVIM
As to the kind of experiment: Calcein quenching fluostar assay. It is filed as cell-based. To be noted: inhibition of human aquaporin 9; Human AQP9 cell line, tetracyclin-induced; 25° C. The protocol: Calcein Quenching Fluostar Assay
A calcein quenching fluostar assay was performed in order to investigate the biological activity of the newly synthesized examples 1 to 57. This type of assay is disclosed in J. Biol. Chem., 2011, 286, 44319-44325 and Am. J. Physiol. Renal Physiol. (2010), 298, F224-230.
1) Two days prior to commencement of the assay, seed 10,000 cells/well of 96 well black clear bottom plate (Greiner Poly-lysin plate). A 1:1 mix of Dulbecco's Modified Eagle's Medium:Nutrient Mixture F-12 (DMEM: F12) was obtained from Gibco. Tetracycline stock of 5 mg/ml in 96% ethanol is used. Medium:DMEM/F12/10% Donor Bovine Serum, Human AQP9 cell line+1:270,000 tetracyclin, mouse AQP9 cell line+1:2,700,000 tetracycline.
2) Day of assay: Flick/slam off the medium and add 50 μl/well of loading solution: 5 ml DMEM/F12/10% Donor Bovine Serum, 25 μl Calcein AM—from freshly dissolved aliquot in 50 μl DMSO (VWR #734-1434), and 100 μl Probenecid.
3) Incubate the well for 90 minutes at 37° C.
4) Perform one wash with 75 μl wash buffer.
5) Add 75 μl of an example compound prepared in wash buffer per well.
Example compounds are prepared in 500 μl U bottom PP plates (NUNC). […] Substance in DMSO are added to row A; 180 μl of wash buffer+1% DMSO are added to rows B-H. 90 μl from row A are transferred and mixed with all other wells (up to row G) to make a 3-fold dilution series.
6) Assay in FLUOstar Optima at 25° C. Settings buffer addition at 135 μl seconds, add 75 μl/well, record time course for 30 seconds, add sucrose buffer 3.6 seconds into recording.
7) Normalization to initial in Excel.
8) Fit to “exponential decay” function in GraphPad Prism 5.0, then arrange half live shrinking values according to wells and fit dose-response curves.
Consider `Cn1c(SCC(=O)Nc2nnc(-c3ccc(F)cc3)s2)nnc1-c1ccc(F)cc1` [Example 1, N-[5-(4-fluorophenyl)-1,3,4-thiadizole-2-yl]-2-{[5-(4-fluorophenyl)-4-methyl-4H-1,2,4-triazole-3-yl]sulfanyl}acetamide], for which the IC50 was 393 nM.
In the case of `Cn1c(SCC(=O)Nc2nnc(-c3ccccc3F)s2)nnc1-c1ccncc1` [Example 2, N-[5-(2-fluorophenyl)-1,3,4-thiadiazol-2-yl]-2-{[4-methyl-5-(pyridin-4-yl)-4H-1,2,4-triazol-3-yl]sulfanyl}acetamide], the IC50 is 193 nM.
Turning to `Cn1c(SCC(=O)Nc2nnc(-c3cccc(F)c3)s2)nnc1-c1ccc(F)cc1` [Example 3, N-[5-(3-fluorophenyl)-1,3,4-thiadizole-2-yl]-2-{[5-(4-fluorophenyl)-4-methyl-4H-1,2,4-triazole-3-yl]sulfanyl}acetamide], the IC50 was 1290 nM.
As for `COc1ccccc1-c1nnc(NC(=O)CSc2nnc(-c3ccc(F)cc3)n2C)s1` [Example 4, 2-{[5-(4-Fluorophenyl)-4-methyl-4H-1,2,4-triazole-3-yl]sulfanyl}-N-[5-(2-methoxyphenyl)-1,3,4-thiadizole-2-yl]-acetamide], the concentration for half-maximal inhibition (IC50) was 4740 nM.
`CCn1c(SCC(=O)Nc2nnc(-c3cccc(OC)c3)s2)nnc1-c1ccc(F)cc1` [Example 5, 2-{[4-ethyl-5-(4-fluorophenyl)-4H-1,2,4-triazol-3-yl]sulfanyl}-N-[5-(3-methoxyphenyl)-1,3,4-thiadiazol-2-yl]acetamide]: the half-inhibitory concentration (IC50) is 4830 nM.
`COc1ccc(-c2nnc(NC(=O)CSc3nnc(-c4ccc(F)cc4)n3C)s2)cc1` [Example 6, 2-{[5-(4-Fluorophenyl)-4-methyl-4H-1,2,4-triazole-3-yl]sulfanyl}-N-[5-(4-methoxyphenyl)-1,3,4-thiadizole-2-yl]-acetamide]: the IC50 was 253 nM.
As for `Cn1c(SCC(=O)Nc2nnc(-c3ccccc3F)s2)nnc1-c1ccc(Cl)cc1` [Example 7, 2-{[5-(4-Chlorophenyl)-4-methyl-4H-1,2,4-triazole-3-yl]sulfanyl}-N-[5-(2-fluorophenyl)-1,3,4-thiadizole-2-yl]-acetamide], the IC50 is 260 nM.
`Cn1c(SCC(=O)Nc2nnc(-c3ccccc3F)s2)nnc1-c1ccc(F)cc1` [Example 8, 2-{[5-(4-Fluorophenyl)-4-methyl-4H-1,2,4-triazole-3-yl]sulfanyl}-N-[5-(2-fluorophenyl)-1,3,4-thiadizole-2-yl]-acetamide]: the IC50 is 157 nM.
For the compound `Cn1c(SCC(=O)Nc2nnc(-c3ccc(F)cc3)s2)nnc1-c1ccncc1` [Example 9, N-[5-(4-fluorophenyl)-1,3,4-thiadiazol-2-yl]-2-{[4-methyl-5-(pyridin-4-yl)-4H-1,2,4-triazol-3-yl]sulfanyl}acetamide], the IC50 was 112 nM.
On to `COc1ccc(-c2nnc(NC(=O)CSc3nnc(-c4ccncc4)n3C)s2)cc1` [Example 10, N-[5-(4-methoxyphenyl)-1,3,4-thiadiazol-2-yl]-2-{[4-methyl-5-(pyridin-4-yl)-4H-1,2,4-triazol-3-yl]sulfanyl}acetamide], for which the IC50 is 37 nM.
The same measure for `CCn1c(SCC(=O)Nc2nnc(-c3ccc(OC)cc3)s2)nnc1-c1ccc(F)cc1` [Example 11, 2-{[4-Ethyl-5-(4-fluorophenyl)-4H-1,2,4-triazol-3-yl]sulfanyl}-N-[5-(4-methoxyphenyl)-1,3,4-thiadiazol-2-yl]acetamide]: 40 nM; for `CCn1c(SCC(=O)Nc2nnc(-c3ccc(F)cc3)s2)nnc1-c1ccc(F)cc1` [Example 12, 2-{[4-Ethyl-5-(4-fluorophenyl)-4H-1,2,4-triazol-3-yl]sulfanyl}-N-[5-(4-fluorophenyl)-1,3,4-thiadiazol-2-yl]acetamide]: 56 nM.
Turning to `CCn1c(SCC(=O)Nc2nnc(-c3ccc(OC)cc3)s2)nnc1-c1ccccc1C` [Example 13, 2-{[4-Ethyl-5-(2-methylphenyl)-4H-1,2,4-triazol-3-yl]sulfanyl}-N-[5-(4-methoxyphenyl)-1,3,4-thiadiazol-2-yl]acetamide], the IC50 is 323 nM.
Turning to `CCn1c(SCC(=O)Nc2nnc(-c3ccc(OC)cc3)s2)nnc1-c1cccc(C)c1` [Example 14, 2-{[4-Ethyl-5-(3-methylphenyl)-4H-1,2,4-triazol-3-yl]sulfanyl}-N-[5-(4-methoxyphenyl)-1,3,4-thiadiazol-2-yl]acetamide], the IC50 is 172 nM.
Take `CCn1c(SCC(=O)Nc2nnc(-c3ccc(OC)cc3)s2)nnc1-c1ccc(C)cc1` [Example 15, 2-{[4-Ethyl-5-(4-methylphenyl)-4H-1,2,4-triazol-3-yl]sulfanyl}-N-[5-(4-methoxyphenyl)-1,3,4-thiadiazol-2-yl]acetamide]: the IC50 was 262 nM.
With `CCn1c(SCC(=O)Nc2nnc(-c3ccc(OC)cc3)s2)nnc1-c1ccc(OC)cc1` [Example 16, 2-{[4-Ethyl-5-(4-methoxyphenyl)-4H-1,2,4-triazol-3-yl]sulfanyl}-N-[5-(4-methoxyphenyl)-1,3,4-thiadiazol-2-yl]acetamide], the IC50 was 269 nM.
Regarding `CCn1c(SCC(=O)Nc2nnc(-c3ccc(OC)cc3)s2)nnc1-c1ccccc1F` [Example 17, 2-{[4-Ethyl-5-(2-fluorophenyl)-4H-1,2,4-triazol-3-yl]sulfanyl}-N-[5-(4-methoxyphenyl)-1,3,4-thiadiazol-2-yl]acetamide], the IC50 is 139 nM.
With `CCn1c(SCC(=O)Nc2nnc(-c3ccc(OC)cc3)s2)nnc1-c1cccc(F)c1` [Example 18, 2-{[4-Ethyl-5-(3-fluorophenyl)-1,2,4-triazol-3-yl]sulfanyl}-N-[5-(4-methoxyphenyl)-1,3,4-thiadiazol-2-yl]acetamide], the 50% inhibitory concentration (IC50) was 135 nM.
Take `CCn1c(SCC(=O)Nc2nnc(-c3ccc(OC)cc3)s2)nnc1-c1ccccc1Cl` [Example 19, 2-{[5-(2-Chlorophenyl)-4-ethyl-4H-1,2,4-triazol-3-yl]sulfanyl}-N-[5-(4-methoxyphenyl)-1,3,4-thiadiazol-2-yl]acetamide]: the half-inhibitory concentration (IC50) was 233 nM.
Turning to `CCn1c(SCC(=O)Nc2nnc(-c3ccc(OC)cc3)s2)nnc1-c1cccnc1` [Example 20, 2-{[4-Ethyl-5-(pyridin-3-yl)-4H-1,2,4-triazol-3-yl]sulfanyl}-N-[5-(4-methoxyphenyl)-1,3,4-thiadiazol-2-yl]acetamide], the IC50 was 56 nM.
The same measure for `CCn1c(SCC(=O)Nc2nnc(-c3ccc(OC)cc3)s2)nnc1-c1ccncc1` [Example 21, 2-{[4-Ethyl-5-(pyridin-4-yl)-4H-1,2,4-triazol-3-yl]sulfanyl}-N-[5-(4-methoxyphenyl)-1,3,4-thiadiazol-2-yl]acetamide]: 68 nM; for `CCn1c(SCC(=O)Nc2nnc(-c3ccc(OC)cc3)s2)nnc1-c1cccc(OC)c1` [Example 22, 2-{[4-Ethyl-5-(3-methoxyphenyl)-4H-1,2,4-triazol-3-yl]sulfanyl}-N-[5-(4-methoxyphenyl)-1,3,4-thiadiazol-2-yl]acetamide]: 160 nM.
In the case of `CCn1c(SCC(=O)Nc2nnc(-c3ccc(F)cc3)s2)nnc1-c1cccc(C)c1` [Example 23] it was 372 nM.
For `CCn1c(SCC(=O)Nc2nnc(-c3ccc(F)cc3)s2)nnc1-c1ccc(C)cc1` [Example 24, 2-{[4-Ethyl-5-(4-methylphenyl)-4H-1,2,4-triazol-3-yl]sulfanyl}-N-[5-(4-fluorophenyl)-1,3,4-thiadiazol-2-yl]acetamide], the IC50 was 427 nM.
For `CCn1c(SCC(=O)Nc2nnc(-c3ccc(F)cc3)s2)nnc1-c1cccc(OC)c1` [Example 25, 2-{[4-Ethyl-5-(3-methoxyphenyl)-4H-1,2,4-triazol-3-yl]sulfanyl}-N-[5-(4-fluorohenyl)-1,3,4-thiadiazol-2-yl]acetamide], the IC50 is 375 nM.
Regarding `CCn1c(SCC(=O)Nc2nnc(-c3ccc(F)cc3)s2)nnc1-c1ccc(OC)cc1` [Example 26, 2-{[4-Ethyl-5-(4-methoxyphenyl)-4H-1,2,4-triazol-3-yl]sulfanyl}-N-[5-(4-fluorophenyl)-1,3,4-thiadiazol-2-yl]acetamide], the IC50 was 477 nM.
Regarding `CCn1c(SCC(=O)Nc2nnc(-c3ccc(F)cc3)s2)nnc1-c1ccccc1F` [Example 27, 2-{[4-Ethyl-5-(2-fluorophenyl)-4H-1,2,4-triazol-3-yl]sulfanyl}-N-[5-(4-fluorophenyl)-1,3,4-thiadiazol-2-yl]acetamide], the IC50 was 366 nM.
With `CCn1c(SCC(=O)Nc2nnc(-c3ccc(F)cc3)s2)nnc1-c1cccc(F)c1` [Example 28], the IC50 is 200 nM.

A word on the IC50: it is the concentration at which inhibition is half-maximal.
